What was measured:
COX-1 = target: T1, COX-1 (Ovis aries, UniProt P05979); test: Cayman COX inhibitor screening assay (prostaglandin ELISA); format: biochemical
T1 construct: gene PTGS1; ovine COX-1
T1 sequence (P05979 25-600): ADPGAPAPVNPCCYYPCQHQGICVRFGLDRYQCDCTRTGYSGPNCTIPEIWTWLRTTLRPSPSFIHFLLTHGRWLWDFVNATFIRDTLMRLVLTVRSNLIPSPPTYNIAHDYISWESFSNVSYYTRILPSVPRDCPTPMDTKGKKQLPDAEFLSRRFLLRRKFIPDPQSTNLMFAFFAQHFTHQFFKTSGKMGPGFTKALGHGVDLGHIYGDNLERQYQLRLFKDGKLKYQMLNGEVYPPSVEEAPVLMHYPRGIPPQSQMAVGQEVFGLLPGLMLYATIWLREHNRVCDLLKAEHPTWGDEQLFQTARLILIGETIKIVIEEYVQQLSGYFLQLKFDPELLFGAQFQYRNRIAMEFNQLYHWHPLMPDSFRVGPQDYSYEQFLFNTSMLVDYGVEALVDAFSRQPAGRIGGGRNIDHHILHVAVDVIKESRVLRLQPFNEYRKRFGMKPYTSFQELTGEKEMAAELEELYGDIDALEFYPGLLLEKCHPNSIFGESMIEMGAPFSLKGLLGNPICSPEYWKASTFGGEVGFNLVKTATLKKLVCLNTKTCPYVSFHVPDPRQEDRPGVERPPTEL

COX-2 = target: T2, COX-2 (Homo sapiens, UniProt P35354); test: as above; format: biochemical
T2 construct: gene PTGS2; human recombinant COX-2
T2 sequence (P35354 18-604): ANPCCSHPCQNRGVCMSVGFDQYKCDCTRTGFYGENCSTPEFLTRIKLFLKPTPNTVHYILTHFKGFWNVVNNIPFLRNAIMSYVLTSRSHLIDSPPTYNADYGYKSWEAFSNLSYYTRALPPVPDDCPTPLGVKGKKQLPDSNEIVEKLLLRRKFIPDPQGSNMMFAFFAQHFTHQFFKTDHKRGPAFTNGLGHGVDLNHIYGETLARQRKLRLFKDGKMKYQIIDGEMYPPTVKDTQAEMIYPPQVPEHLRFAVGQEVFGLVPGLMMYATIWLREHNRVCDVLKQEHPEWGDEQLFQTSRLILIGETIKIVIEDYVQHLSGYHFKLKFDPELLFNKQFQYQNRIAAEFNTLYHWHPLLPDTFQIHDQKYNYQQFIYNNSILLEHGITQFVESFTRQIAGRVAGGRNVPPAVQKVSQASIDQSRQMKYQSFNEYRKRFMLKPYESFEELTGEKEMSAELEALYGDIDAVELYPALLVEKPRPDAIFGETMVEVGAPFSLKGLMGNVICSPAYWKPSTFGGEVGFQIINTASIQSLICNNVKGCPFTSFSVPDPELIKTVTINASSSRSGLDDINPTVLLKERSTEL

Question: Which IC50 (COX-1) does the source give for COc1c(-c2ccc(O[C@@H]3O[C@H](CO)[C@@H](O)[C@H](O)[C@H]3O)c(O)c2)oc2cc(O[C@@H]3O[C@H](CO)[C@@H](O)[C@H](O)[C@H]3O)cc(O)c2c1=O [quercetin-3-methoxy-4′-glucosyl-7-glucoside] here?
Answer: Its IC50 is 4.31 µM.

Question: What about the IC50 (COX-2) of the same molecule?
Answer: Its IC50 is 3.11 µM.

Source: paper PMC6631596, “Analgesic and Anti-Inflammatory Activities of Quercetin-3-methoxy-4′-glucosyl-7-glucoside Isolated from Indian Medicinal Plant Melothria heterophylla” (Medicines, 2019)
